Data: ChEMBL document CHEMBL5303304, “EUbOPEN Chemogenomics Library - IncuCyte” (2023)

How the values were obtained:
Assay type in all cases: toxicity, cell-based
HEK-293T = assay: Incucyte cell viability with HEK293T; settings: human, 10 µM, compound concentration 10 uM
Fibroblast = assay: Incucyte cell viability with human fibroblast; settings: 10 µM, compound concentration 10 uM
U2OS = assay: Incucyte cell viability with U2OS; settings: human, 10 µM, compound concentration 10 uM
Note: unitless GR value; below 1 slowed growth and below 0 cell loss.

Row | SMILES | Growth Rate (HEK-293T; 0 h, replicate number 1) | Growth Rate (HEK-293T; 6 h, replicate number 1) | Growth Rate (HEK-293T; 6 h, replicate number 2) | Growth Rate (HEK-293T; 12 h, replicate number 1) | Growth Rate (HEK-293T; 12 h, replicate number 2) | Growth Rate (HEK-293T; 18 h, replicate number 1) | Growth Rate (HEK-293T; 18 h, replicate number 2) | Growth Rate (HEK-293T; 24 h, replicate number 1) | Growth Rate (HEK-293T; 24 h, replicate number 2) | Growth Rate (Fibroblast; 0 h, replicate number 1) | Growth Rate (Fibroblast; 18 h, replicate number 2) | Growth Rate (Fibroblast; 24 h, replicate number 2) | Growth Rate (U2OS; 12 h, replicate number 1) | Growth Rate (U2OS; 12 h, replicate number 2) | Growth Rate (U2OS; 18 h, replicate number 1) | Growth Rate (U2OS; 24 h, replicate number 1) | Growth Rate (Fibroblast; 6 h, replicate number 2) | Growth Rate (Fibroblast; 12 h, replicate number 1) | Growth Rate (Fibroblast; 12 h, replicate number 2) | Growth Rate (Fibroblast; 18 h, replicate number 1) | also measured
1 | CN(C(=O)CCOCCOCCOCCOCCNc1cccc2c1C(=O)N(C1CCC(=O)NC1=O)C2=O)[C@H]1CC[C@@]2(C)[C@@H](CC[C@@H]3[C@@H]2CC[C@]2(C)[C@@H](c4ccc5ccncc5c4)CC[C@@H]32)C1 (some centres undefined) | 0.06 | 0.57 | 1 | 0.77 | 0.73 | 0.76 | 0.79 | 0.88 | 0.76 | -1 | 0.88 | 0.91 | 0.79 | -0.46 | 0.82 | 0.92 | – | – | – | – | Growth Rate (HEK-293T; 0 h, replicate number 2): -0.85; Growth Rate (U2OS; 6 h, replicate number 1): 0.52
2 | C=CC(=O)Nc1ccc(C(=O)Nc2n[nH]c3c2CN(C(=O)N[C@H](CN(C)C)c2ccccc2)C3(C)C)cc1 | -0.5 | 0.11 | -0.51 | 0.02 | -0.3 | 0.02 | -0.27 | 0.03 | -0.16 | – | 0.06 | -0.02 | – | -0.41 | 0.84 | 0.76 | 0.71 | 0.56 | 0.45 | 0.18 | Growth Rate (Fibroblast; 0 h, replicate number 2): -0.72; Growth Rate (Fibroblast; 24 h, replicate number 1): 0.19; Growth Rate (U2OS; 0 h, replicate number 1): -1; Growth Rate (U2OS; 6 h, replicate number 2): 1; Growth Rate (U2OS; 18 h, replicate number 2): 0.97
3 | CC(C)S(=O)(=O)c1ccccc1Nc1nc(N[C@@H]2CCCN(CCCCCCCNC(=O)COc3cccc4c3C(=O)N(C3CCC(=O)NC3=O)C4=O)C2)ncc1Cl (some centres undefined) | -1 | -0.44 | -0.73 | -0.41 | -0.59 | -0.31 | -0.49 | -0.24 | -0.38 | -1 | -0.45 | -0.45 | 0.25 | 0.57 | 0.03 | -0.23 | 0.14 | -0.39 | -0.49 | -0.33 | Growth Rate (Fibroblast; 6 h, replicate number 1): -0.22; Growth Rate (Fibroblast; 24 h, replicate number 1): -0.23; Growth Rate (U2OS; 0 h, replicate number 1): -1; Growth Rate (U2OS; 6 h, replicate number 1): 0.86; Growth Rate (U2OS; 18 h, replicate number 2): 0.15; Growth Rate (U2OS; 24 h, replicate number 2): 0.04
4 | Cn1cc(-n2cnc3c(NCc4nc5cc(Cl)c(Cl)cc5[nH]4)nc(N4CCOCC4)nc32)cn1 | -0.86 | -0.17 | -0.51 | -0.21 | -0.56 | -0.23 | -0.48 | -0.18 | -0.36 | -1 | -0.06 | 0 | 0.64 | -0.72 | 0.1 | -0.09 | -0.32 | 0.37 | -0.22 | 0.46 | Growth Rate (HEK-293T; 0 h, replicate number 2): 0.65; Growth Rate (Fibroblast; 0 h, replicate number 2): -0.31; Growth Rate (Fibroblast; 6 h, replicate number 1): 0.08; Growth Rate (Fibroblast; 24 h, replicate number 1): 0.54; Growth Rate (U2OS; 0 h, replicate number 1): -0.99; Growth Rate (U2OS; 0 h, replicate number 2): -0.97; Growth Rate (U2OS; 6 h, replicate number 2): -0.74; Growth Rate (U2OS; 18 h, replicate number 2): -0.54; Growth Rate (U2OS; 24 h, replicate number 2): -0.53
5 | CC(C)S(=O)(=O)c1ccccc1Nc1nc(N[C@@H]2CCCN(CCCCCCCNC(=O)COc3cccc4c3C(=O)N(C3CCC(=O)N(C)C3=O)C4=O)C2)ncc1Cl (some centres undefined) | -1 | -0.52 | -0.7 | -0.4 | -0.61 | -0.33 | -0.5 | -0.27 | -0.39 | -1 | -0.36 | -0.36 | 0.11 | 0.08 | -0.06 | -0.24 | 0.48 | -0.14 | -0.21 | -0.33 | Growth Rate (HEK-293T; 0 h, replicate number 2): -0.99; Growth Rate (Fibroblast; 6 h, replicate number 1): 0.41; Growth Rate (Fibroblast; 24 h, replicate number 1): -0.23; Growth Rate (U2OS; 0 h, replicate number 1): -1; Growth Rate (U2OS; 6 h, replicate number 1): 0.42; Growth Rate (U2OS; 6 h, replicate number 2): 0.49; Growth Rate (U2OS; 18 h, replicate number 2): -0.14; Growth Rate (U2OS; 24 h, replicate number 2): -0.2
